# Measured values: US11634404B2 (priority 2016, dated 2023)
# Assays:
# Type in all cases: cell-based
# [1] = target: panel of 168 GPCRs (Homo sapiens, UniProt Q9NSD7); conditions: GPCR RXFP3; agonist, 10 μM
# [2] = target: panel of 168 GPCRs (Homo sapiens, UniProt P48546); conditions: GPCR GIPR; agonist, 10 μM
# [3] = target: panel of 168 GPCRs (Homo sapiens, UniProt Q9H1C0); conditions: GPCR GPR92; agonist, 10 μM
# [4] = target: panel of 168 GPCRs (Homo sapiens, UniProt Q9HBW0); conditions: GPCR EDG4; agonist, 10 μM
# [5] = target: panel of 168 GPCRs (Homo sapiens, UniProt Q03431); conditions: GPCR PTHR1; agonist, 10 μM
# Sequence of panel of 168 GPCRs (Homo sapiens, UniProt Q03431) (Q03431 27-593 limits assumed): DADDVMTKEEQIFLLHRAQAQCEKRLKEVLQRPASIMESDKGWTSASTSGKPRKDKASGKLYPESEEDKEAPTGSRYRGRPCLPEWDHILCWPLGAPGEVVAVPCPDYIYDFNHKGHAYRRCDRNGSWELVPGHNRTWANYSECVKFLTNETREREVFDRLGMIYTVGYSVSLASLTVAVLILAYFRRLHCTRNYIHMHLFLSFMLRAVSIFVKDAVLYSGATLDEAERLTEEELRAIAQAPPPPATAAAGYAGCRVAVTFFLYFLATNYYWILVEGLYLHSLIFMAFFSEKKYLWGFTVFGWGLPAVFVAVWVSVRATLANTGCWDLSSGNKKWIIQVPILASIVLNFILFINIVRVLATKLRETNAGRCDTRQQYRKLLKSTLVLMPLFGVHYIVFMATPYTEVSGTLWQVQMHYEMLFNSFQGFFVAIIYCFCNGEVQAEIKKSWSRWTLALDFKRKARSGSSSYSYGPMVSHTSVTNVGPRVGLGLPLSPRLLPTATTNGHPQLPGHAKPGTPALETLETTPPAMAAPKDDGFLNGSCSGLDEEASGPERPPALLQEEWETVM
# [6] = target: panel of 168 GPCRs (Homo sapiens, UniProt Q99788); conditions: GPCR CMKLR1; agonist, 10 μM
# [7] = target: panel of 168 GPCRs (Homo sapiens, UniProt Q96LB2); conditions: GPCR MRGPRX1; agonist, 10 μM
# [8] = target: panel of 168 GPCRs (Homo sapiens, UniProt O14842); conditions: GPCR FFAR1; agonist, 10 μM
# [9] = target: panel of 168 GPCRs (Homo sapiens, UniProt P46663); conditions: GPCR BDKRB1; agonist, 10 μM
# [10] = target: panel of 168 GPCRs (Homo sapiens, UniProt O43614); conditions: GPCR HCRTR2; agonist, 10 μM
# [11] = system: panel of 168 GPCRs; conditions: GPCR DRD2S; agonist, 10 μM
# [12] = target: panel of 168 GPCRs (Homo sapiens, UniProt O43613); conditions: GPCR HCRTR1; agonist, 10 μM
# [13] = target: panel of 168 GPCRs (Homo sapiens, UniProt P25116); conditions: GPCR F2R; agonist, 10 μM
# Sequence of panel of 168 GPCRs (Homo sapiens, UniProt P25116) (P25116 22-425 limits assumed): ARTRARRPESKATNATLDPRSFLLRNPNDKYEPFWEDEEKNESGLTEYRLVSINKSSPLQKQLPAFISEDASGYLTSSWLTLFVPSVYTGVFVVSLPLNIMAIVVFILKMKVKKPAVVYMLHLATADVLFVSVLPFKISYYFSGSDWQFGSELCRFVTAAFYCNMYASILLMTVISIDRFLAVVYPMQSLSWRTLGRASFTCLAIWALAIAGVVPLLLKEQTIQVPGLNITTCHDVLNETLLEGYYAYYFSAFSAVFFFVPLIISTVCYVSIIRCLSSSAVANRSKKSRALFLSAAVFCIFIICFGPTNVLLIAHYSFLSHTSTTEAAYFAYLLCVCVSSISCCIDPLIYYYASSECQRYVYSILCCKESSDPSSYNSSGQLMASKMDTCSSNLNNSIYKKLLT
# [14] = target: panel of 168 GPCRs (Homo sapiens, UniProt Q9P296); conditions: GPCR C5L2; agonist, 10 μM
# [15] = target: panel of 168 GPCRs (Homo sapiens, UniProt P30559); conditions: GPCR OXTR; agonist, 10 μM
# [16] = target: panel of 168 GPCRs (Homo sapiens, UniProt P21917); conditions: GPCR DRD4; agonist, 10 μM
# [17] = target: panel of 168 GPCRs (Homo sapiens, UniProt P08912); conditions: GPCR CHRM5; agonist, 10 μM
# [18] = target: panel of 168 GPCRs (Homo sapiens, UniProt P21452); conditions: GPCR TACR2; agonist, 10 μM
# [19] = target: panel of 168 GPCRs (Homo sapiens, UniProt P21731); conditions: GPCR TBXA2R; agonist, 10 μM
# [20] = target: panel of 168 GPCRs (Homo sapiens, UniProt P47898); conditions: GPCR HTR5A; agonist, 10 μM
# [21] = target: panel of 168 GPCRs (Homo sapiens, UniProt P32238); conditions: GPCR CCKAR; agonist, 10 μM
# [22] = target: panel of 168 GPCRs (Homo sapiens, UniProt P08173); conditions: GPCR CHRM4; agonist, 10 μM
# [23] = target: panel of 168 GPCRs (Homo sapiens, UniProt P43116); conditions: GPCR PTGER2; agonist, 10 μM
# [24] = target: panel of 168 GPCRs (Homo sapiens, UniProt Q01726); conditions: GPCR MC1R; agonist, 10 μM
# [25] = target: panel of 168 GPCRs (Homo sapiens, UniProt P35372); conditions: GPCR OPRM1; agonist, 10 μM
# [26] = target: panel of 168 GPCRs (Homo sapiens, UniProt P51582); conditions: GPCR P2RY4; agonist, 10 μM
# [27] = target: panel of 168 GPCRs (Homo sapiens, UniProt Q9HC97); conditions: GPCR GPR35; agonist, 10 μM
# [28] = target: panel of 168 GPCRs (Homo sapiens, UniProt P35462); conditions: GPCR DRD3; agonist, 10 μM
# [29] = target: panel of 168 GPCRs (Homo sapiens, UniProt O00574); conditions: GPCR CXCR6; agonist, 10 μM
# [30] = target: panel of 168 GPCRs (Homo sapiens, UniProt Q96RI0); conditions: GPCR F2RL3; agonist, 10 μM
# Sequence of panel of 168 GPCRs (Homo sapiens, UniProt Q96RI0) (Q96RI0 18-385 limits assumed): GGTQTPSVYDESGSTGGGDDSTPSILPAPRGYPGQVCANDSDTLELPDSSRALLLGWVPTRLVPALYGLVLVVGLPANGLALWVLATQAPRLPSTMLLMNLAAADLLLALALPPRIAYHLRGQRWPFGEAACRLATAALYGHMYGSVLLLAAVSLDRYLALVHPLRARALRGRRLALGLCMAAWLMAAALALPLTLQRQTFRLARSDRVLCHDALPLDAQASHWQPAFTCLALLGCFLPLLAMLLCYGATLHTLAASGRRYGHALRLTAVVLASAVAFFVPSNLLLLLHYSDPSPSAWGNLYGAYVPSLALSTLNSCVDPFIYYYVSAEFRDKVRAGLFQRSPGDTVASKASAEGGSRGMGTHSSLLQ
# [31] = target: panel of 168 GPCRs (Homo sapiens, UniProt P11229); conditions: GPCR CHRM1; agonist, 10 μM
# [32] = target: panel of 168 GPCRs (Homo sapiens, UniProt P21730); conditions: GPCR C5AR1; agonist, 10 μM
# Sequence of panel of 168 GPCRs (Homo sapiens, UniProt P48546) (P48546 22-466 limits assumed): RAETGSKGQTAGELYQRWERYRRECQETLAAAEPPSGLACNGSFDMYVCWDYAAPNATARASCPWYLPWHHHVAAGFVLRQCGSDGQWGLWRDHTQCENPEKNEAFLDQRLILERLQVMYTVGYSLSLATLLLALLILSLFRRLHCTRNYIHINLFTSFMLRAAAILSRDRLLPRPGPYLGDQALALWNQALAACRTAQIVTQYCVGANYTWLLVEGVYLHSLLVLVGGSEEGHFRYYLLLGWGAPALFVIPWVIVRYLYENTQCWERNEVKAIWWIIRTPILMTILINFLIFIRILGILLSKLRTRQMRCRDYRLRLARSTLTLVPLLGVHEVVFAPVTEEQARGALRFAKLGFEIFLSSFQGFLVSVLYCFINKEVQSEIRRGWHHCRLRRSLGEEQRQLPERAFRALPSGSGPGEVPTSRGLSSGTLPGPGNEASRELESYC
smiles,measurement,setting,value
"COc1ccc(OCCN2CCN(C(=O)c3cc4ccccc4[nH]3)CC2)cc1 [Compound 1, (1H-indol-2-yl)(4-(2-(4-methoxyphenoxy)ethyl)piperazin-1-yl)methanone]",β-Arrestin Recruitment activity,[1],5%
same,β-Arrestin Recruitment activity,[2],3%
same,β-Arrestin Recruitment activity,[3],6%
same,β-Arrestin Recruitment activity,[4],6%
same,β-Arrestin Recruitment activity,[5],0%
same,β-Arrestin Recruitment activity,[6],0%
same,β-Arrestin Recruitment activity,[7],3%
same,β-Arrestin Recruitment activity,[8],4%
same,β-Arrestin Recruitment activity,[9],0%
same,β-Arrestin Recruitment activity,[10],0%
same,β-Arrestin Recruitment activity,[11],43%
same,β-Arrestin Recruitment activity,[12],0%
same,β-Arrestin Recruitment activity,[13],5%
same,β-Arrestin Recruitment activity,[14],6%
same,β-Arrestin Recruitment activity,[15],0%
same,β-Arrestin Recruitment activity,[16],4%
same,β-Arrestin Recruitment activity,[17],3%
same,β-Arrestin Recruitment activity,[18],3%
same,β-Arrestin Recruitment activity,[19],0%
same,β-Arrestin Recruitment activity,[20],3%
same,β-Arrestin Recruitment activity,[21],0%
same,β-Arrestin Recruitment activity,[22],3%
same,β-Arrestin Recruitment activity,[23],−3%
same,β-Arrestin Recruitment activity,[24],5%
same,β-Arrestin Recruitment activity,[25],0%
same,β-Arrestin Recruitment activity,[26],13%
same,β-Arrestin Recruitment activity,[27],6%
same,β-Arrestin Recruitment activity,[28],164%
same,β-Arrestin Recruitment activity,[29],8%
same,β-Arrestin Recruitment activity,[30],4%
same,β-Arrestin Recruitment activity,[31],5%
same,β-Arrestin Recruitment activity,[32],0%
